Results from patent publication US12662498B2 (priority 2017, dated 2026).

Assay: ICH stability study of psilocybin batches (appearance, water content, purity, assay)
[1] = T = 1 month, 2-8° C., listed as 170231
[2] = T = 1 month, 25° C./60% RH, listed as 170231
[3] = T = 1 month, 40° C./75% RH, listed as 170231
[4] = T = 3 months, 2-8° C., listed as 170231
[5] = T = 3 months, 25° C./60% RH, listed as 170231
[6] = T = 3 months, 40° C./75% RH, listed as 170231

SMILES: CN(C)CCc1c[nH]c2cccc(OP(=O)(O)O)c12 [Batch 170231]
- Assay by HPLC (on a dry basis) (T = 0): 98.65% ^w/w % w/w
- Impurities LT 0.05% (T = 0): 0.22%
- Impurities by HPLC: RRT0.69 (T = 0): LT 0.05%
- Impurities by HPLC: RRT 1.49 (T = 0): 0.06%
- Impurities by HPLC: RRT 1.62 (Psilocin) (T = 0): 0.39%
- Impurities by HPLC: RRT 1.70 (T = 0): 0.05%
- Impurity at RRT 1.89 (T = 0): LT 0.05%
- Impurity at RRT 2.45 (T = 0): LT 0.05%
- Chemical Purity By HPLC (T = 0, listed as 170231): 99.28%
- Total Impurities (T = 0, listed as 170231): 0.72%
- Water content by loss on drying (T = 0, listed as 170231): 0.32% ^w/w % w/w
- Assay by HPLC (on a dry basis) (T = 1 month, 2-8° C.): 98.76% ^w/w % w/w
- Impurities LT 0.05% (T = 1 month, 2-8° C.): 0.39%
- Impurities by HPLC: RRT 1.49 (T = 1 month, 2-8° C.): 0.05%
- Impurities by HPLC: RRT 1.62 (Psilocin) (T = 1 month, 2-8° C.): 0.36%
- Impurities by HPLC: RRT 1.70 (T = 1 month, 2-8° C.): LT 0.05%
- Impurity at RRT 1.89 (T = 1 month, 2-8° C.): LT 0.05%
- Impurity at RRT 2.45 (T = 1 month, 2-8° C.): LT 0.05%
- Chemical Purity By HPLC [1]: 99.20%
- Total Impurities [1]: 0.80%
- Water content by loss on drying [1]: 0.27% ^w/w % w/w
- Assay by HPLC (on a dry basis) (T = 1 month, 25° C./60% RH): 97.98% ^w/w % w/w
- Impurities LT 0.05% (T = 1 month, 25° C./60% RH): 0.42%
- Impurities by HPLC: RRT 1.49 (T = 1 month, 25° C./60% RH): 0.05%
- Impurities by HPLC: RRT 1.62 (Psilocin) (T = 1 month, 25° C./60% RH): 0.37%
- Impurities by HPLC: RRT 1.70 (T = 1 month, 25° C./60% RH): LT 0.05%
- Impurity at RRT 1.89 (T = 1 month, 25° C./60% RH): LT 0.05%
- Impurity at RRT 2.45 (T = 1 month, 25° C./60% RH): LT 0.05%
- Chemical Purity By HPLC [2]: 99.16%
- Total Impurities [2]: 0.84%
- Water content by loss on drying [2]: 0.17% ^w/w % w/w
- Assay by HPLC (on a dry basis) (T = 1 month, 40° C./75% RH): 98.52% ^w/w % w/w
- Impurities LT 0.05% (T = 1 month, 40° C./75% RH): 0.41%
- Impurities by HPLC: RRT 1.49 (T = 1 month, 40° C./75% RH): 0.06%
- Impurities by HPLC: RRT 1.62 (Psilocin) (T = 1 month, 40° C./75% RH): 0.36%
- Impurities by HPLC: RRT 1.70 (T = 1 month, 40° C./75% RH): LT 0.05%
- Impurity at RRT 1.89 (T = 1 month, 40° C./75% RH): LT 0.05%
- Impurity at RRT 2.45 (T = 1 month, 40° C./75% RH): LT 0.05%
- Chemical Purity By HPLC [3]: 99.17%
- Total Impurities [3]: 0.83%
- Water content by loss on drying [3]: 0.19% ^w/w % w/w
- Assay by HPLC (on a dry basis) (T = 3 months, 2-8° C.): 98.45% ^w/w % w/w
- Impurities LT 0.05% (T = 3 months, 2-8° C.): 0.22%
- Impurities by HPLC: RRT0.69 (T = 3 months, 2-8° C.): 0.05%
- Impurities by HPLC: RRT 1.49 (T = 3 months, 2-8° C.): 0.05%
- Impurities by HPLC: RRT 1.62 (Psilocin) (T = 3 months, 2-8° C.): 0.37%
- Impurities by HPLC: RRT 1.70 (T = 3 months, 2-8° C.): LT 0.05%
- Impurity at RRT 1.89 (T = 3 months, 2-8° C.): LT 0.05%
- Impurity at RRT 2.45 (T = 3 months, 2-8° C.): LT 0.05%
- Chemical Purity By HPLC [4]: 99.30%
- Total Impurities [4]: 0.70%
- Water content by loss on drying [4]: 0.17% ^w/w % w/w
- Assay by HPLC (on a dry basis) (T = 3 months, 25° C./60% RH): 99.46% ^w/w % w/w
- Impurities LT 0.05% (T = 3 months, 25° C./60% RH): 0.27%
- Impurities by HPLC: RRT0.69 (T = 3 months, 25° C./60% RH): LT 0.05%
- Impurities by HPLC: RRT 1.49 (T = 3 months, 25° C./60% RH): 0.05%
- Impurities by HPLC: RRT 1.62 (Psilocin) (T = 3 months, 25° C./60% RH): 0.36%
- Impurities by HPLC: RRT 1.70 (T = 3 months, 25° C./60% RH): LT 0.05%
- Impurity at RRT 1.89 (T = 3 months, 25° C./60% RH): LT 0.05%
- Impurity at RRT 2.45 (T = 3 months, 25° C./60% RH): LT 0.05%
- Chemical Purity By HPLC [5]: 99.31%
- Total Impurities [5]: 0.69%
- Water content by loss on drying [5]: 0.01% ^w/w % w/w
- Assay by HPLC (on a dry basis) (T = 3 months, 40° C./75% RH): 98.64% ^w/w % w/w
- Impurities LT 0.05% (T = 3 months, 40° C./75% RH): 0.34%
- Impurities by HPLC: RRT0.69 (T = 3 months, 40° C./75% RH): LT 0.05%
- Impurities by HPLC: RRT 1.49 (T = 3 months, 40° C./75% RH): 0.06%
- Impurities by HPLC: RRT 1.62 (Psilocin) (T = 3 months, 40° C./75% RH): 0.39%
- Impurities by HPLC: RRT 1.70 (T = 3 months, 40° C./75% RH): LT 0.05%
- Impurity at RRT 1.89 (T = 3 months, 40° C./75% RH): LT 0.05%
- Impurity at RRT 2.45 (T = 3 months, 40° C./75% RH): LT 0.05%
- Chemical Purity By HPLC [6]: 99.17%
- Total Impurities [6]: 0.79%
- Water content by loss on drying [6]: 0.19% ^w/w % w/w
- Appearance (T = 6 months, 2-8° C.): An off white solid.
- Assay by HPLC (on a dry basis) (T = 6 months, 2-8° C.): 97.97% ^w/w % w/w
- Chemical Purity By HPLC (T = 6 months, 2-8° C.): 99.20%
- Impurities LT 0.05% (T = 6 months, 2-8° C.): 0.32%
- Impurities by HPLC: RRT0.69 (T = 6 months, 2-8° C.): 0.06%
- Impurities by HPLC: RRT 1.49 (T = 6 months, 2-8° C.): LT 0.05%
